Values quoted from earlier work as cited in patent US20150025027A1 (PHARTRIALS PERQUISAS FARMACÊUTICAS LTDA, priority 2012, published 2015).
In brackets after ≈: the same amount, converted by molar mass.

What was measured:
[1] = not given; remark: listed apart in the source
[2] = not given; remark: listed apart in the source
[3] = not given; remark: listed apart in the source
[4] = high-risk, obese population; vs. 10% in comparison group

CC(NC(C)(C)C)C(=O)c1cccc(Cl)c1 (stereo not shown) [Bupropion, 1-(3-chlorophenyl)-2-{(1,1-dimethyl)-amino]-1-propanone]
half-life (in vivo): 24 h | solubility in water [1]: 312 mg/mL (≈ 1300 mM) | log P [2]: 3.6

CC1(C)OC2CO[C@@]3(COS(N)(=O)=O)OC(C)(C)O[C@H]3C2O1 (stereo partly shown) [Topiramate]
weight loss in humans [3]: effective in weight loss | time to peak plasma concentration (after oral administration): 2 h | time to plasma concentrations in the state of equilibrium (days of treatment): 4 days | share of the dose administered per metabolite (each of six metabolites): ≤ 5% | dose metabolized (forming six metabolites): 30% | dose administered eliminated through the urine (in vivo): 70% | oral bioavailability (oral): 80% | solubility in water [1]: 9.8 mg/mL (≈ 28.9 mM) | log P [2]: −0.7

CC(C)CC(N(C)C)C1(c2ccc(Cl)cc2)CCC1 (stereo not shown) [sibutramine]
cardiovascular outcomes (AMI, CVA, cardiorespiratory failure or death) in patients receiving the drug [4]: 11.4%
